{"source": "patent US8371378B2", "about": "“Method for pre-treatment of subterranean sites adjacent to water injection wells” (E. I. du Pont de Nemours and Company, priority 2010, dated 2013)", "key": {"[1]": {"test": "Titration of sand/amine/brine mixture with 10% acetic acid, amine in solution by GC (Example 5)", "details": "core sand, brine #2, 10 wt % acetic acid", "protocol": "(§1) Concentration of amines, in media and water, were analyzed by gas chromatography (GC). An Agilent Model 5890 (Agilent, Wilmington, Del.), GC equipped with a […] and a split/splitless injector, a DB-FFAP column (30 meter length×0.32 millimeter (mm) depth×0.25 micrometer particle size). […] The system was calibrated using a sample of N,N-Dimethyl-1-Dodecaneamine (Aldrich). Helium was used as the carrier gas. A temperature gradient of 50 degrees Celsius (° C.) to 250° C. at 30° C. increase per minute (min) was used. Retention times (in minutes, min) for various chemicals of interest included: N,N-Dimethyl-1-Dodecaneamine (8.08 min); N,N-Dimethyl-1-Tetradecaneamine (8.85 min); N,N-Dimethyl-1-Hexadecane-amine (9.90 min); N,N-Dimethyl-1-Octadecaneamine (10.26 min) and N-Methyl,N-Benzyl)-1-Tetradecaneamine (11.40 min).\nThe same procedure outlined in Example 4 was repeated here to produce the sand/amine mixture. 30.85 grams (gr) of the sand/amine mixture was added to 100 ml of brine #2 (Table 3) to create the sand/amine/brine mixture."}, "[2]": {"test": "Titration of sand/amine/brine mixture with 10% nitric acid, amine in solution by GC (Example 4)", "details": "core sand, brine #2, 10 wt % nitric acid", "protocol": "as §1\nThe procedure outlined in Example 2 was used to produce the sand/amine mixture except that 519 mg of the amine, 10 gr of Pentane. and 60.062 gr of sand from the Oa and Ob layers were used. 29.065 gr of this sand/amine mixture was added to 100 ml of brine #2 (Table 3) to create the sand/amine/brine mixture. […] 0.1 ml of 10 weight percent (wt %) nitric acid in water was added to this solution, and the pH and the amine concentration were measured again."}, "[3]": {"test": "Titration of amine coated core sand in brine #2 with 1N HCl, amine in solution by GC (Example 2)", "format": "physicochemical", "details": "brine #2, 1N HCl", "protocol": "Helium was used as the carrier gas.\n38 milligrams (mg) of N N-Dimethyl-1-Dodecanamine (hereafter referred to as “the amine”) was added to 10.210 gr of Pentane. This solution was added to 10.1845 gr of specific sand layers (Oa and Ob) obtained from the Schrader Bluff formation of the Milne Point Unit of the Alaskan North slope. The oil content of the sand was first removed using a mixture of methanol and toluene (50/50, volume/volume) as solvent washes. The solvent mixture was subsequently evaporated off the core sand to produce clean, dry, flowable core sand. This sand was mixed with the amine and pentane solution to produce a slurry. This slurry was thoroughly mixed and the pentane was evaporated off leaving the amine on the sand (hereafter referred to as sand/amine mixture). 100 ml of brine #2 (Table 3) was added to the sand/amine mixture to create the sand/amine/brine mixture. […] The fact that the amine was not detected underlined its strong binding to the sand particles. […] The data underlines the remarkable efficiency of an acid at ionizing and removing the amine from the sand."}}, "data": [{"smiles": "CCCCCCCCCCCCN(C)C", "note": "[N-N-dimethyl-1-dodeanamine, N N-Dimethyl-1-Dodecanamine]", "values": [{"measurement": "pH of complete ionization and solubilization in the water of the amine", "setting": "[1]", "result": "< 6.7", "unit": "pH"}, {"measurement": "pH of complete ionization and solubilization in the water of the amine", "setting": "[2]", "result": "< 6.7", "unit": "pH"}, {"measurement": "pH of complete ionization and solubilization of the amine in the water", "setting": "[3]", "result": "< 6.0", "unit": "pH"}]}]}
